# According to patent publication US20160031937A1, “NEURAL REGENERATION PEPTIDES AND USES THEREFOR” (CURONZ HOLDINGS COMPANY LIMITED, priority 2013, published 2016):
# Square brackets hold non-standard residues; d marks the D form. Ends that are not written are not given here. Aib = CC(C)(N)C(=O)O
# Tests used:
# [1] = tested on: W9-hESCs; experiment: TUNEL staining for apoptotic cell death after OGD injury; format: cell-based, human; conditions: 24 hours, 100 pM NRP2945
# Protocol: (§1) Neuronal differentiation was achieved using the noggin induction method described for mouse neurospheres as adapted by Dottori for human neurospheres (Dottori & Pera, 2007). The colonies were maintained at 37° C., with 5% CO2 in hESC medium supplemented with 500 ng/ml of Noggin for 14 days while replacing Noggin every other day.
# At this point, the cells were washed with PBS and the colonies were again mechanically dissociated, but this time the central (differentiated) part of the colony was also cut into smaller pieces using a 26-gauge needle. The pieces were transferred to individual wells in a low adherent 96-well plate containing Neurobasal®A (NBM) (Invitrogen) supplemented with 1× X B-27® (Invitrogen) and 1× N-2 (Invitrogen) 20 ng/ml human recombinant EGF and 20 ng/ml human recombinant bFGF (Pharmacia). […]
# To maintain isoosmotic pressure conditions, 25 mM 2-deoxy-D-glucose was added to NBM-AO medium and equilibrated for 30 minutes at room temperature before the initial media change as described above. […] Culture supernatant was removed after this 4 hour period and stored at 4° C. until analysed for lactate dehydrogenase (LDH) activity. […]
# Tunnel positive cells, wells were imaged and the images re-coded independently before quantitation. No additional blinding was performed for the machine read LDH assay process.
# [2] = tested on: human W9-hESCs; experiment: H2O2 induced oxidative stress injury, LDH detected cell death; format: cell-based; conditions: for cell death reduced by (LDH): 50 μM H2O2, first 4 hours, corrected for basal injury; for reduced LDH release, net effect at 24 hours: H2O2 injury; for reduction of LDH detected cell death: between removal of H2O2 at 4 hours and 24 hours; for reduction of LDH release, net effect at 24 hours: H2O2
# Protocol: Experiments with human embryonic stem cells (hESC) were carried out in accordance with the guidelines and regulations of the NHMRC and with the approval of the Austin Health Human Research Ethics Committee (Approval number H2008/03194), and University of Melbourne Human Research Ethics Committee (Approval number 0605017). H9 (WA-09, WiCell) cell lines were grown as previously described (Dottori & Pera, 2007).
# Briefly, hESC were cultured on mitomycin-C treated mouse embryonic fibroblasts (MEFs) in hESC medium consisting of high-glucose Dulbecco's Modified Eagle Medium (DMEM) without sodium pyruvate, supplemented with 1% insulin/transferrin/selenium, 0.1 mM β-mercaptoethanol, 1% nonessential amino acids (NEAA), 2 mM glutamine, 25 U/ml penicillin, 25 μg/ml streptomycin (all from Invitrogen) and 20% fetal calf serum (FCS) (Hyclone).
# Alternatively, hESC were cultured on mitomycin-C treated human foreskin fibroblasts (HFF; ATCC, CRL-2097) in KSR media consisting of DMEM/nutrient mixture F-12, supplemented with 0.1 mM […], 1% nonessential amino acids (NEAA), 2 mM glutamine, 25 U/ml penicillin, 25 μg/ml streptomycin and 20% knockout serum replacement (all from Invitrogen).
# All cells were cultured at 37° C. in 5% CO2 with 100% humidity. Colonies were mechanically dissected every 7 days (subcultivated or passaged) and transferred to freshly prepared MEFs or HFFs. Media was changed every second day.
# as §1
# At this point, the cells were washed with PBS and the colonies were again mechanically dissociated, but this time the central (differentiated) part of the colony was also cut into smaller pieces using a 26-gauge needle. The pieces were transferred to individual wells in a low adherent 96-well plate containing Neurobasal®A (NBM) (Invitrogen) supplemented with 1× X B-27® (Invitrogen) and 1× N-2 (Invitrogen) 20 ng/ml human recombinant EGF and 20 ng/ml human recombinant bFGF (Pharmacia). Media was changed every 2 to 3 days to allow neurosphere formation over 2 weeks.
# In order to facilitate neuronal differentiation, neurospheres were again separated into smaller pieces under a dissection microscope, and three to four pieces were transferred to each well of a 96-well plate. Prior to this transfer, the plate was pre-coated with poly-D-lysine (10 μg/ml in PBS), washed in PBS, recoated with mouse laminin (5 μg/ml in PBS), and washed again. The cells were then grown for 11 days (with media changed every two days) in NBM lacking growth factors prior to induction of injury and assessment of hypothermia.
# On the day of experiments, the medium was changed to NBM+N2 containing a B27 preparation lacking the usual antioxidants (Invitrogen; 10889-038) to eliminate their confounding effects (NBM-AO).
# The media was replaced with fresh NBM-AO and the cells were incubated for a further 20 hours containing drug, before again measuring LDH. Oxidative stress was induced by adding 50 μM fresh H2O2 (Sigma, H1009) to the growth factor negative NBM on initiation of the experiment with continued culture for 4 hours when LDH was measured and NBM-AO without H2O2 was returned to the culture which was maintained for a further 20 hours before again measuring LDH. […]
# Measurement of lactate dehydrogenase activity (a marker of total cell death) and TUNEL staining (a marker of apoptotic death) was performed according to the kit manufacturer's instructions (Roche, 1164479001 and 11684795910 respectively).
# Within experiments, each comparison was performed at least in triplicate and the mean of these values taken forward into group comparisons. […]
# [3] = molecular target: T1, homodimeric CXCR4 receptor (Homo sapiens, UniProt P61073); experiment: 125I-SDF-1 displacement binding study (CEREP); conditions: recombinant homodimeric CXCR4 expressing HEK293 cells; unlabelled peptide in competition
# T1 construct: host or cells: HEK293
# Protocol: This was determined by radioactive ^125I-SDF-1 displacement studies using CXCR4 homodimeric receptors and unlabelled NNZ-4921 and NRP2945 in competition.
# T1 sequence (P61073 whole entry): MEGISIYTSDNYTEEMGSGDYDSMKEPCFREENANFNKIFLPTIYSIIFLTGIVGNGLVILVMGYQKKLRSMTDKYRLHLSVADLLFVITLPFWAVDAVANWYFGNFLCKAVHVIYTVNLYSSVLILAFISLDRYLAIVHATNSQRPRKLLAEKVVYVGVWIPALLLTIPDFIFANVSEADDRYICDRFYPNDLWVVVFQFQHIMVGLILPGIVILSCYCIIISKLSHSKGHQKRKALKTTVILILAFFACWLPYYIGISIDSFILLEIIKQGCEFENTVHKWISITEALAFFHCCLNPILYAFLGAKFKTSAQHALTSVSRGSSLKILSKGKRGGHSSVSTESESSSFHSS
substance,measurement,setting,value
"Gly Arg Arg Ala Ala Pro Gly Arg Aib Gly Gly (GRRAAPGR[Aib]GG) [NRP2945, synthetic 11-mer peptidomimetic optimized for stability and pharmacokinetics]",W9-hESCs protected from apoptotic cell death (TUNEL),[1],23%
same,cell death reduced by (LDH),[2]; 1 pM NRP2945 at injury induction,35%
same,cell death reduced by (LDH),[2]; 1 fM NRP2945 at injury induction,23.2%
same,cell death reduced by (LDH),[2]; 10 fM NRP2945 at injury induction,40%
same,cell death reduced by (LDH),[2]; 100 fM NRP2945 at injury induction,44%
same,"reduced LDH release, net effect at 24 hours",[2]; 1 pM NRP2945,26%
same,"reduced LDH release, net effect at 24 hours",[2]; 1 fM NRP2945,27%
same,"reduced LDH release, net effect at 24 hours",[2]; 10 fM NRP2945,48%
same,"reduced LDH release, net effect at 24 hours",[2]; 100 fM NRP2945,47%
same,reduction of LDH detected cell death,[2]; 10 fM NRP2945,70%
same,reduction of LDH detected cell death,[2]; 100 fM NRP2945,57%
same,"reduction of LDH release, net effect at 24 hours","[2]; repeat experiment, 10 fM NRP2945 added at 0 hours",48%
same,"reduction of LDH release, net effect at 24 hours","[2]; repeat experiment, 10 fM NRP2945 added at 1 hour",35%
same,"reduction of LDH release, net effect at 24 hours","[2]; repeat experiment, 10 fM NRP2945 added at 3 hours (p≦0.124)",23%
same,"reduction of LDH release, net effect at 24 hours","[2]; repeat experiment, 100 fM NRP2945 added at 0 hours",41%
same,"reduction of LDH release, net effect at 24 hours","[2]; repeat experiment, 100 fM NRP2945 added at 1 hour",39%
same,"reduction of LDH release, net effect at 24 hours","[2]; repeat experiment, 100 fM NRP2945 added at 3 hours",27%
same,reduction in cell death (LDH),"[2]; repeat experiment, first 4 hours of H2O2 injury, 10 fM NRP2945 added at 0 hours",40%
same,reduction in cell death (LDH),"[2]; repeat experiment, first 4 hours of H2O2 injury, 10 fM NRP2945 administered one hour after injury induction",35%
same,reduction in cell death (LDH),"[2]; repeat experiment, first 4 hours of H2O2 injury, 100 fM NRP2945 added at 0 hours",37%
same,reduction in cell death (LDH),"[2]; repeat experiment, first 4 hours of H2O2 injury, 100 fM NRP2945 administered one hour after injury induction",33%
same,effect on cell death (LDH),"[2]; repeat experiment, first 4 hours of H2O2 injury, NRP2945 added 3 hours after injury induction (1 hour exposure)",no significant beneficial effect
same,displacement of 125I-SDF-1 from homodimeric CXCR4 receptor,[3],do not bind to the homodimeric CXCR4 receptor
